Assay results: patent publication USRE47689E1, “Compounds for treating spinal muscular atrophy” (PTC Therapeutics, Inc., priority 2011, dated 2019)
Where two headings read alike, the source gives them in different places.

How the values were obtained:
[1] = system: SMN2 minigene (full length SMN2 minigene mRNA containing SMN2 exon 7); experiment: SMN2 minigene mRNA splicing RT-qPCR assay in cultured cells; format: cell-based, human; conditions: Homo sapiens, HEK293-H, read-out: EC1.5x for production of full length SMN2 mRNA
How it was run: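 HEK293H cells stably carrying the SMN2-A minigene treated 24 h at 37° C with compound (DMSO, 200× stock), then lysed. Multiplex RT-qPCR (SMN primers 0.4 μM final; 40 cycles) measures full-length exon 7-containing minigene mRNA, normalized to GAPDH and to vehicle; EC1.5x derived and binned by stars.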

Smn protein = Smn protein assay in cultured cells (SMN HTRF); format: cell-based, human; conditions: for EC1.5x (concentration giving 1.5-fold Smn protein increase): read-out: EC1.5x for Smn protein expression
How it was run: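 Lysates in RIPA with protease inhibitors are incubated overnight at room temperature with HTRF anti-SMN antibodies. EC1.5x is derived from fold increase in ΔF over vehicle.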

[2] = HEK293H cells stably transfected with SMN2-A minigene, 24 hours, 7-point concentration curve, 1.5-fold relative to vehicle-treated cells
[3] = SMA Type 1 patient fibroblast cells (GM03813), 48 hours, 7-point concentration curve, SMN HTRF, concentration producing 1.5 times Smn protein vs DMSO vehicle control
[4] = SMA patient fibroblast cells, 48 hours, 7-point concentration data, fold increase relative to vehicle control (SMN HTRF)

SMILES	EC (1.5-fold) [1, 2] [µM]	EC1.5x (concentration giving 1.5-fold Smn protein increase) (Smn protein; [3]) [nM]	maximum fold (Fold) increase of Smn protein (Smn protein; [4])	melting point [°C]	EC (1.5-fold) ([1]; 24 h) [µM]	maximum fold (Fold) increase of Smn protein (Smn protein)	EC1.5x (concentration giving 1.5-fold Smn protein increase) (Smn protein) [nM]
CCCN1CCN(c2ccc3cc(-c4cc5cc(C)nc(C)c5o4)c(=O)oc3c2)CC1 [Compound 815, 3-(5,7-dimethylfuro[2,3-c]pyridin-2-yl)-7-(4-propylpiperazin-1-yl)-2H-chromen-2-one]	< 0.1	< 300	**** (fold increase between >1.5 and ≤1.65)	259 to 262			
CN(C)Cc1ccc2cc(-c3nc4c(Cl)cccc4s3)c(=O)oc2c1 [Cpd 14, 3-(4-chloro-1,3-benzothiazol-2-yl)-7-[(dimethylamino)methyl]-2H-chromen-2-one]	0.3 to 1		*** (fold increase between >1.35 and ≤1.5)	179 to 182			
O=c1oc2cc(N3CCNCC3)ccc2cc1-c1cn2cc(C3CC3)cc(F)c2n1 [Compound 500, 3-(6-cyclopropyl-8-fluoroimidazo[1,2-a]pyridin-2-yl)-7-(piperazin-1-yl)-2H-chromen-2-one]	0.3 to 1		* (maximum fold increase of ≤1.2)	261 to 271			
Cc1cn2cc(-c3cc4ccc(N5CCN(CCF)[C@@H](C)C5)cc4oc3=O)nc2c(C)n1 [Compound 894, 3-(6,8-dimethylimidazo[1,2-a]pyrazin-2-yl)-7-[(3S)-4-(2-fluoroethyl)-3-methylpiperazin-1-yl]-2H-chromen-2-one]	< 0.1	300 to 1000	***** (fold increase >1.65)	192 to 195			
C[C@@H]1CN(c2ccc3cc(-c4cn(-c5ccccn5)cn4)c(=O)oc3c2)C[C@H](C)N1 [Cpd 433, 7-[(3R,5S)-3,5-dimethylpiperazin-1-yl]-3-[1-(pyridin-2-yl)-1H-imidazol-4-yl]-2H-chromen-2-one]	3 to 30		* (maximum fold increase of ≤1.2)	201 to 206			
O=c1oc2cc(CN3CCNCC3)ccc2cc1-c1nc2c(Cl)cccc2s1 [Compound 7, 3-(4-chloro-1,3-benzothiazol-2-yl)-7-(piperazin-1-ylmethyl)-2H-chromen-2-one]	3 to 30		* (maximum fold increase of ≤1.2)	222 to 226			
Cc1nccn2cc(-c3cc4ccc(N5CCCNCC5)cc4oc3=O)nc12 [Compound 572, 7-(1,4-diazepan-1-yl)-3-(8-methylimidazo[1,2-a]pyrazin-2-yl)-2H-chromen-2-one]	0.1 to 0.3	300 to 1000	**** (fold increase between >1.5 and ≤1.65)	212 to 216			
Cc1cn2cc(-c3cc4ccc(N5C[C@H]6CCCN[C@H]6C5)cc4oc3=O)nc2c(C)n1 [Compound 655, 3-(6,8-dimethylimidazo[1,2-a]pyrazin-2-yl)-7-[(4aR,7aR)-octahydro-6H-pyrrolo[3,4-b]pyridin-6-yl]-2H-chromen-2-one]	< 0.1	< 300	**** (fold increase between >1.5 and ≤1.65)	259 to 269			
C[C@@H]1CN(c2ccc3cc(-c4cn5cccc(Cl)c5n4)c(=O)oc3c2)CCN1C [Compound 296, 3-(8-chloroimidazo[1,2-a]pyridin-2-yl)-7-[(3R)-3,4-dimethylpiperazin-1-yl]-2H-chromen-2-one]	0.1 to 0.3		*** (fold increase between >1.35 and ≤1.5)	199 to 202			
C[C@@H]1CN(c2ccc3cc(-c4ccc5c(c4)OCO5)c(=O)oc3c2)C[C@H](C)N1 [Compound 487, 3-(1,3-benzodioxol-5-yl)-7-[(3R,5S)-3,5-dimethylpiperazin-1-yl]-2H-chromen-2-one]	3 to 30		* (maximum fold increase of ≤1.2)	123 to 125			
COc1c(F)cc(F)cc1-c1cc2ccc(N3CCN[C@@H](C)C3)cc2oc1=O [Compound 539, 3-(3,5-difluoro-2-methoxyphenyl)-7-[(3S)-3-methylpiperazin-1-yl]-2H-chromen-2-one]	3 to 30		* (maximum fold increase of ≤1.2)	156 to 158			
CCN1C[C@@H]2C[C@H]1CN2c1ccc2cc(-c3cn4cc(C)nc(C)c4n3)c(=O)oc2c1 [Compound 793, 3-(6,8-dimethylimidazo[1,2-a]pyrazin-2-yl)-7-[(1S,4S)-5-ethyl-2,5-diazabicyclo[2.2.1]hept-2-yl]-2H-chromen-2-one]	< 0.1	< 300	**** (fold increase between >1.5 and ≤1.65)	133 to 135			
COc1ccc(-c2cc3ccc(N4CCN[C@@H](C)C4)cc3oc2=O)cc1 [Compound 449, 3-(4-methoxyphenyl)-7-[(3S)-3-methylpiperazin-1-yl]-2H-chromen-2-one]	1 to 3		* (maximum fold increase of ≤1.2)	123 to 126			
Cc1ccn2nc(-c3cc4ccc(N5C[C@@H](C)N[C@@H](C)C5)cc4oc3=O)cc2c1 [Compound 304, 7-[(3R,5S)-3,5-dimethylpiperazin-1-yl]-3-(5-methylpyrazolo[1,5-a]pyridin-2-yl)-2H-chromen-2-one]	0.1 to 0.3	1000 to 3000	*** (fold increase between >1.35 and ≤1.5)	200 to 202			
CCc1cc(C)cn2cc(-c3cc4ccc(N5CCN(C)CC5)cc4oc3=O)nc12 [Compound 340, 3-(8-ethyl-6-methylimidazo[1,2-a]pyridin-2-yl)-7-(4-methylpiperazin-1-yl)-2H-chromen-2-one]	0.3 to 1		* (maximum fold increase of ≤1.2)	203 to 210			
CCc1cc(C)cn2cc(-c3cc4ccc(N5CCCN(C)CC5)cc4oc3=O)nc12 [Compound 332, 3-(8-ethyl-6-methylimidazo[1,2-a]pyridin-2-yl)-7-(4-methyl-1,4-diazepan-1-yl)-2H-chromen-2-one]	0.3 to 1		* (maximum fold increase of ≤1.2)	172 to 176			
Cc1csc(-c2cc3ccc(N4CCN[C@@H](C)C4)cc3oc2=O)n1 [Cpd 283, 7-[(3S)-3-methylpiperazin-1-yl]-3-(4-methyl-1,3-thiazol-2-yl)-2H-chromen-2-one]			* (maximum fold increase of ≤1.2)	194 to 199	0.3 to 1		
Cc1cn2cc(-c3cc4ccc(C5=CCN(C(C)C)CC5)cc4oc3=O)nc2c(C)n1 [Compound 802, 3-(6,8-dimethylimidazo[1,2-a]pyrazin-2-yl)-7-[1-(propan-2-yl)-1,2,3,6-tetrahydropyridin-4-yl]-2H-chromen-2-one]				207 to 217	< 0.1	**** (key: *: maximum fold increase of ≤1.2; **: fold increase between >1.2 and ≤1.35; ***: fold increase between >1.35 and ≤1.5; ****: fold increase between >1.5 and ≤1.65; *****: fold increase >1.65)	< 300
